Experimental data reported in patent publication US20200339625A1, “NOVEL RADIOMETAL-BINDING COMPOUNDS FOR DIAGNOSIS OR TREATMENT OF PROSTATE SPECIFIC MEMBRANE ANTIGEN-EXPRESSING CANCER” (PROVINCIAL HEALTH SERVICES AUTHORITY, priority 2017, published 2020).

Columns and labels:
[1] = test system: mice bearing LNCaP tumor xenografts; assay: PET/CT imaging of 68Ga-labeled compounds; type: in vivo
Description: 2.17 PET/CT Imaging and Biodistribution
(§1) Imaging and biodistribution experiments were performed using NODSCID 1L2RyKO male mice. Mice were anesthetized by inhalation with 2% isoflurane in oxygen, and implanted subcutaneously with 1×10^7 LNCaP cells behind left shoulder. Mice were imaged or used in biodistribution studies when the tumor grew up to reach 5-8 mm in diameter during 5-6 weeks.
PET imaging experiments were conducted using Siemens Inveon micro PET/CT scanner. Each tumor bearing mouse was injected 6-8 MBq of 68Ga-labeled tracer through the tail vein under anesthesia (2% isoflurane in oxygen). The mice were allowed to recover and roam freely in their cage. After 50 min, the mice were sedated again with 2% isoflurane in oxygen inhalation and positioned in the scanner. A 10-min CT scan was conducted first for localization and attenuation correction after segmentation for reconstructing the PET images. Then, a 10-min static PET imaging was performed to determined uptake in tumor and other organs. The mice were kept warm by a heating pad during acquisition. For imaging studies acquired at 3 h post-injection (p.i.), the mice were placed in the micro PET/CT scanner at 170 min p.i. Then, the CT acquisitions were conducted as described above, a 15-min static PET imaging was performed to determined uptake in tumor and other organs.

[2] = test system: mice bearing PSMA-expressing LNCAP cancer xenografts; assay: Biodistribution of 68Ga-labeled compounds; type: in vivo
Description: as §1
For biodistribution studies, the mice were injected with the radiotracer as described above. At predetermined time points (1 or 3 h), the mice was anesthetized with 2% isoflurane inhalation, and euthanized by CO2 inhalation. Blood was withdrawn immediately from the heart, and the organs/tissues of interest were collected. The collected organs/tissues were weighed and counted using an automatic gamma counter. The uptake in each organ/tissue was normalized to the injected dose using a standard curve, and expressed as the percentage of the injected dose per gram of tissue (% ID/g).

O=C([O-])CN1CCN(CC(=O)[O-])CCN(CC(=O)NCCCC[C@H](NC(=O)CNC(=O)CCc2ccccc2)C(=O)NC[C@H]2CC[C@H](C(=O)N[C@@H](Cc3ccc4ccccc4c3)C(=O)NCCCC[C@H](NC(=O)N[C@@H](CCC(=O)O)C(=O)O)C(=O)O)CC2)CCN(CC(=O)[O-])CC1.[68Ga+3] [^68Ga-HTK03082]
excretion pathway ([1]; PET/CT images): excreted mainly by the renal pathway
Adrenal glands uptake ([2]; 1 h post-injection): 2.19 ± 0.76 % ID/g
Blood uptake ([2]; 1 h post-injection): 1.37 ± 0.23 % ID/g
Bone uptake ([2]; 1 h post-injection): 0.15 ± 0.06 % ID/g
Brain uptake ([2]; 1 h post-injection): 0.03 ± 0.01 % ID/g
Fat uptake ([2]; 1 h post-injection): 0.61 ± 0.09 % ID/g
Heart uptake ([2]; 1 h post-injection): 0.40 ± 0.07 % ID/g
Intestine uptake ([2]; 1 h post-injection): 0.33 ± 0.07 % ID/g
Kidneys uptake ([2]; 1 h post-injection): 81.6 ± 12.6 % ID/g
Lacrimal uptake ([2]; 1 h post-injection): 0.08 ± 0.03 % ID/g
Liver uptake ([2]; 1 h post-injection): 0.39 ± 0.09 % ID/g
Lungs uptake ([2]; 1 h post-injection): 1.39 ± 0.27 % ID/g
Muscle uptake ([2]; 1 h post-injection): 0.33 ± 0.15 % ID/g
Pancreas uptake ([2]; 1 h post-injection): 0.47 ± 0.26 % ID/g
Salivary uptake ([2]; 1 h post-injection): 1.17 ± 0.27 % ID/g
Seminal uptake ([2]; 1 h post-injection): 0.81 ± 0.94 % ID/g
Spleen uptake ([2]; 1 h post-injection): 1.12 ± 0.19 % ID/g
Stomach uptake ([2]; 1 h post-injection): 0.10 ± 0.03 % ID/g
Tail uptake ([2]; 1 h post-injection): 0.84 ± 0.14 % ID/g
Testes uptake ([2]; 1 h post-injection): 0.42 ± 0.05 % ID/g
Thyroid uptake ([2]; 1 h post-injection): 0.58 ± 0.11 % ID/g
Tumor uptake ([2]; 1 h post-injection): 13.6 ± 2.16 % ID/g
Tumor:Blood ratio ([2]; 1 h post-injection): 10.1 ± 1.91
Tumor:Muscle ratio ([2]; 1 h post-injection): 49.2 ± 24.2
Tumor:kidney ratio ([2]; 1 h post-injection): 0.17 ± 0.02
Urine uptake ([2]; 1 h post-injection): 349 ± 209 % ID/g
Adrenal glands uptake ([2]; 3 h post-injection): 0.38 ± 0.06 % ID/g
Blood uptake ([2]; 3 h post-injection): 0.25 ± 0.04 % ID/g
Bone uptake ([2]; 3 h post-injection): 0.01 ± 0.01 % ID/g
Brain uptake ([2]; 3 h post-injection): 0.01 ± 0.00 % ID/g
Fat uptake ([2]; 3 h post-injection): 0.21 ± 0.01 % ID/g
Heart uptake ([2]; 3 h post-injection): 0.07 ± 0.02 % ID/g
Intestine uptake ([2]; 3 h post-injection): 0.19 ± 0.02 % ID/g
Kidneys uptake ([2]; 3 h post-injection): 22.3 ± 9.97 % ID/g
Lacrimal uptake ([2]; 3 h post-injection): 0.01 ± 0.01 % ID/g
Liver uptake ([2]; 3 h post-injection): 0.17 ± 0.02 % ID/g
Lungs uptake ([2]; 3 h post-injection): 0.28 ± 0.07 % ID/g
Muscle uptake ([2]; 3 h post-injection): 0.11 ± 0.11 % ID/g
Pancreas uptake ([2]; 3 h post-injection): 0.09 ± 0.03 % ID/g
Salivary uptake ([2]; 3 h post-injection): 0.20 ± 0.07 % ID/g
Seminal uptake ([2]; 3 h post-injection): 0.12 ± 0.08 % ID/g
Spleen uptake ([2]; 3 h post-injection): 0.24 ± 0.08 % ID/g
Stomach uptake ([2]; 3 h post-injection): 0.05 ± 0.01 % ID/g
Tail uptake ([2]; 3 h post-injection): 0.24 ± 0.14 % ID/g
Testes uptake ([2]; 3 h post-injection): 0.13 ± 0.08 % ID/g
Thyroid uptake ([2]; 3 h post-injection): 0.16 ± 0.09 % ID/g
Tumor uptake ([2]; 3 h post-injection): 14.5 ± 2.12 % ID/g
Tumor:Blood ratio ([2]; 3 h post-injection): 58.1 ± 12.6
Tumor:Muscle ratio ([2]; 3 h post-injection): 223 ± 122
Tumor:kidney ratio ([2]; 3 h post-injection): 1.12 ± 1.30
Urine uptake ([2]; 3 h post-injection): 191 ± 83.1 % ID/g

O=C([O-])CN1CCN(CC(=O)[O-])CCN(CC(=O)NCC2CCC(C(=O)NC(Cc3ccc4ccc5cccc6ccc3c4c56)C(=O)NCCCCC(NC(=O)NC(CCC(=O)O)C(=O)O)C(=O)O)CC2)CCN(CC(=O)[O-])CC1.[68Ga+3] (centres unmarked) [^68Ga-HTK03029]
excretion pathway ([1]; PET/CT images): excreted mainly via the renal pathway
tumor uptake (qualitative comparison) ([1]; PET/CT images, compounds of FIG. 13): comparable
Adrenal glands uptake ([2]; 1 h post-injection): 4.91 ± 1.57 % ID/g
Blood uptake ([2]; 1 h post-injection): 3.93 ± 0.91 % ID/g
Bone uptake ([2]; 1 h post-injection): 0.92 ± 0.14 % ID/g
Brain uptake ([2]; 1 h post-injection): 0.09 ± 0.02 % ID/g
Fat uptake ([2]; 1 h post-injection): 1.57 ± 0.42 % ID/g
Heart uptake ([2]; 1 h post-injection): 1.25 ± 0.27 % ID/g
Intestine uptake ([2]; 1 h post-injection): 0.77 ± 0.11 % ID/g
Kidneys uptake ([2]; 1 h post-injection): 198 ± 49.3 % ID/g
Lacrimal uptake ([2]; 1 h post-injection): 1.06 ± 0.49 % ID/g
Liver uptake ([2]; 1 h post-injection): 1.32 ± 0.63 % ID/g
Lungs uptake ([2]; 1 h post-injection): 3.59 ± 0.69 % ID/g
Muscle uptake ([2]; 1 h post-injection): 0.63 ± 0.10 % ID/g
Pancreas uptake ([2]; 1 h post-injection): 0.94 ± 0.18 % ID/g
Salivary uptake ([2]; 1 h post-injection): 3.27 ± 1.02 % ID/g
Seminal uptake ([2]; 1 h post-injection): 6.74 ± 10.7 % ID/g
Spleen uptake ([2]; 1 h post-injection): 7.08 ± 5.08 % ID/g
Stomach uptake ([2]; 1 h post-injection): 0.31 ± 0.08 % ID/g
Tail uptake ([2]; 1 h post-injection): 2.18 ± 0.65 % ID/g
Testes uptake ([2]; 1 h post-injection): 1.02 ± 0.13 % ID/g
Thyroid uptake ([2]; 1 h post-injection): 1.57 ± 0.32 % ID/g
Tumor uptake ([2]; 1 h post-injection): 13.9 ± 6.58 % ID/g
Tumor:Blood ratio ([2]; 1 h post-injection): 3.39 ± 1.01
Tumor:Muscle ratio ([2]; 1 h post-injection): 21.3 ± 7.50
Tumor:kidney ratio ([2]; 1 h post-injection): 0.07 ± 0.02
Urine uptake ([2]; 1 h post-injection): 175 ± 178 % ID/g

O=C([O-])CN1CCN(CC(=O)[O-])CCN(CC(=O)NCCCC[C@H](NC(=O)CNC(=O)CCCc2ccc(F)cc2)C(=O)NC[C@H]2CC[C@H](C(=O)N[C@@H](Cc3ccc4ccccc4c3)C(=O)NCCCC[C@H](NC(=O)N[C@@H](CCC(=O)O)C(=O)O)C(=O)O)CC2)CCN(CC(=O)[O-])CC1.[68Ga+3] [^68Ga-HTK03085]
change of tumor uptake from 1 h to 3 h post-injection ([1]; PET/CT images): increases over time
excretion pathway ([1]; PET/CT images): excreted mainly by the renal pathway
blood retention (qualitative) ([1]; PET/CT images at 1 h and 3 h post-injection, comparison within the figure): significantly higher blood retention
Adrenal glands uptake ([2]; 1 h post-injection): 3.57 ± 1.09 % ID/g
Blood uptake ([2]; 1 h post-injection): 5.73 ± 0.93 % ID/g
Bone uptake ([2]; 1 h post-injection): 0.34 ± 0.08 % ID/g
Brain uptake ([2]; 1 h post-injection): 0.08 ± 0.01 % ID/g
Fat uptake ([2]; 1 h post-injection): 1.36 ± 0.28 % ID/g
Heart uptake ([2]; 1 h post-injection): 1.46 ± 0.27 % ID/g
Intestine uptake ([2]; 1 h post-injection): 0.61 ± 0.10 % ID/g
Kidneys uptake ([2]; 1 h post-injection): 85.8 ± 8.36 % ID/g
Lacrimal uptake ([2]; 1 h post-injection): 0.11 ± 0.06 % ID/g
Liver uptake ([2]; 1 h post-injection): 1.01 ± 0.29 % ID/g
Lungs uptake ([2]; 1 h post-injection): 3.67 ± 0.72 % ID/g
Muscle uptake ([2]; 1 h post-injection): 0.58 ± 0.08 % ID/g
Pancreas uptake ([2]; 1 h post-injection): 0.86 ± 0.09 % ID/g
Salivary uptake ([2]; 1 h post-injection): 2.61 ± 0.59 % ID/g
Seminal uptake ([2]; 1 h post-injection): 1.42 ± 2.17 % ID/g
Spleen uptake ([2]; 1 h post-injection): 3.90 ± 1.57 % ID/g
Stomach uptake ([2]; 1 h post-injection): 0.24 ± 0.05 % ID/g
Tail uptake ([2]; 1 h post-injection): 1.79 ± 0.36 % ID/g
Testes uptake ([2]; 1 h post-injection): 1.03 ± 0.12 % ID/g
Thyroid uptake ([2]; 1 h post-injection): 1.70 ± 0.25 % ID/g
Tumor uptake ([2]; 1 h post-injection): 18.8 ± 3.35 % ID/g
Tumor:Blood ratio ([2]; 1 h post-injection): 3.33 ± 0.75
Tumor:Muscle ratio ([2]; 1 h post-injection): 33.2 ± 7.91
Tumor:kidney ratio ([2]; 1 h post-injection): 0.22 ± 0.03
Urine uptake ([2]; 1 h post-injection): 181 ± 97.2 % ID/g
Adrenal glands uptake ([2]; 3 h post-injection): 1.37 ± 0.48 % ID/g
Blood uptake ([2]; 3 h post-injection): 2.10 ± 0.48 % ID/g
Bone uptake ([2]; 3 h post-injection): 0.13 ± 0.04 % ID/g
Brain uptake ([2]; 3 h post-injection): 0.04 ± 0.01 % ID/g
Fat uptake ([2]; 3 h post-injection): 0.70 ± 0.13 % ID/g
Heart uptake ([2]; 3 h post-injection): 0.52 ± 0.09 % ID/g
Intestine uptake ([2]; 3 h post-injection): 0.39 ± 0.08 % ID/g
Kidneys uptake ([2]; 3 h post-injection): 63.4 ± 16.6 % ID/g
Lacrimal uptake ([2]; 3 h post-injection): 0.04 ± 0.07 % ID/g
Liver uptake ([2]; 3 h post-injection): 0.61 ± 0.08 % ID/g
Lungs uptake ([2]; 3 h post-injection): 1.50 ± 0.26 % ID/g
Muscle uptake ([2]; 3 h post-injection): 0.31 ± 0.08 % ID/g
Pancreas uptake ([2]; 3 h post-injection): 0.35 ± 0.09 % ID/g
Salivary uptake ([2]; 3 h post-injection): 1.03 ± 0.33 % ID/g
Seminal uptake ([2]; 3 h post-injection): 0.21 ± 0.08 % ID/g
Spleen uptake ([2]; 3 h post-injection): 1.05 ± 0.09 % ID/g
Stomach uptake ([2]; 3 h post-injection): 0.16 ± 0.09 % ID/g
Tail uptake ([2]; 3 h post-injection): 0.60 ± 0.15 % ID/g
Testes uptake ([2]; 3 h post-injection): 0.60 ± 0.09 % ID/g
Thyroid uptake ([2]; 3 h post-injection): 0.64 ± 0.10 % ID/g
Tumor uptake ([2]; 3 h post-injection): 28.9 ± 4.27 % ID/g
Tumor:Blood ratio ([2]; 3 h post-injection): 14.2 ± 2.77
Tumor:Muscle ratio ([2]; 3 h post-injection): 95.8 ± 20.9
Tumor:kidney ratio ([2]; 3 h post-injection): 0.48 ± 0.11
Urine uptake ([2]; 3 h post-injection): 141 ± 54.3 % ID/g
